Source: US20180139985A1 (priority 2015, published 2018)
Read-outs that look alike come from different tables or passages of the source. Bridge positions count the residues as written; N and C are the ends. Square brackets hold non-standard residues; d marks the D form. Peptide text beside a SMILES is read from it. * marks the point of attachment. Ileψ(thiazoline)Cys = CC[C@H](C)[C@H](N)C1=N[C@H](C(=O)*)CS1; dOrn = NCCC[C@@H](N)C(=O)O

Columns and labels:
[1] = system: Clostridium perfringens CP-013; type: in vivo, broiler chicken; conditions: for % Weight gain 1 to 14 d / % Weight gain 1 to 28 d / % Weight gain 14 to 28 d: [(final weight − initial weight)/initial weight] × 100; for Mean body weight (g) 1-d: day 1 (starting weight), n = 30
[2] = system: Clostridium perfringens; type: in vivo, broiler chicken; conditions: for Mean CFU per gram of chicken feces on Day 28 (n = 24): final day of study; for Mean CFU per gram of chicken feces on Day 21 (n = 6): five days after final challenge; for Mean CFU per gram of chicken feces on Day 10 (n = 10): pre-challenge

Row | Compound | % Weight gain 1 to 14 d ([1]; 55 ppm in feed) [%] | % Weight gain 1 to 28 d ([1]; 55 ppm in feed) [%] | % Weight gain 14 to 28 d ([1]; 55 ppm in feed) [%] | Mean body weight (g) 1-d ([1]; 55 ppm in feed) [g] | Mean CFU per gram of chicken feces on Day 28 (n = 24) ([2]; 55 ppm in feed) [CFU per gram] | Mean CFU per gram of chicken feces on Day 21 (n = 6) ([2]; 55 ppm in feed) | Mean CFU per gram of chicken feces on Day 10 (n = 10) ([2]; 55 ppm in feed) | % Weight gain 1 to 14 d ([1]; 2 ppm in feed) [%] | % Weight gain 1 to 28 d ([1]; 2 ppm in feed) [%] | % Weight gain 14 to 28 d ([1]; 2 ppm in feed) [%] | Mean body weight (g) 1-d ([1]; 2 ppm in feed) [g] | Mean CFU per gram of chicken feces on Day 28 (n = 24) ([2]; 2 ppm in feed) [CFU per gram] | Mean CFU per gram of chicken feces on Day 21 (n = 6) ([2]; 2 ppm in feed) [CFU per gram] | Mean CFU per gram of chicken feces on Day 10 (n = 10) ([2]; 2 ppm in feed)
1 | CC[C@H](C)[C@H](N)C1=N[C@H](C(=O)N[C@@H](CC(C)C)C(=O)N[C@H](CCC(=O)O)C(=O)N[C@H](C(=O)N[C@H]2CCCCNC(=O)[C@H](CC(N)=O)NC(=O)[C@@H](CC(=O)O)NC(=O)[C@H](Cc3cnc[nH]3)NC(=O)[C@@H](Cc3ccccc3)NC(=O)[C@H]([C@@H](C)CC)NC(=O)[C@@H](CCCN)NC2=O)[C@@H](C)CC)CS1 [Bacitracin] ({Ileψ(thiazoline)Cys}-L[dE]IK[dOrn]I[dF]H[dD]N; lactam 4-C) | 941.1 | 3566.0 | 252.1 | 44.4 | 0.0 | 2.5 × 10^1 ± 9.6 ^ CFU per gram | 8.6 × 10^2 ± 1.6 × 10^2 CFU per gram |  |  |  |  |  |  | 
2 | Virginiamycin |  |  |  |  |  |  |  | 1024.7 | 3532.8 | 223.0 | 44.5 | 0.0 | 0.0 | 1.1 × 10^3 ± 2.2 × 10^2 CFU per gram
